From ChEMBL document CHEMBL5728023, “Inhibitors of TRPC6” (2020)

Biological target: T1, Short transient receptor potential channel 6 (Homo sapiens, UniProt Q9Y210)
T1 sequence (Q9Y210 whole entry): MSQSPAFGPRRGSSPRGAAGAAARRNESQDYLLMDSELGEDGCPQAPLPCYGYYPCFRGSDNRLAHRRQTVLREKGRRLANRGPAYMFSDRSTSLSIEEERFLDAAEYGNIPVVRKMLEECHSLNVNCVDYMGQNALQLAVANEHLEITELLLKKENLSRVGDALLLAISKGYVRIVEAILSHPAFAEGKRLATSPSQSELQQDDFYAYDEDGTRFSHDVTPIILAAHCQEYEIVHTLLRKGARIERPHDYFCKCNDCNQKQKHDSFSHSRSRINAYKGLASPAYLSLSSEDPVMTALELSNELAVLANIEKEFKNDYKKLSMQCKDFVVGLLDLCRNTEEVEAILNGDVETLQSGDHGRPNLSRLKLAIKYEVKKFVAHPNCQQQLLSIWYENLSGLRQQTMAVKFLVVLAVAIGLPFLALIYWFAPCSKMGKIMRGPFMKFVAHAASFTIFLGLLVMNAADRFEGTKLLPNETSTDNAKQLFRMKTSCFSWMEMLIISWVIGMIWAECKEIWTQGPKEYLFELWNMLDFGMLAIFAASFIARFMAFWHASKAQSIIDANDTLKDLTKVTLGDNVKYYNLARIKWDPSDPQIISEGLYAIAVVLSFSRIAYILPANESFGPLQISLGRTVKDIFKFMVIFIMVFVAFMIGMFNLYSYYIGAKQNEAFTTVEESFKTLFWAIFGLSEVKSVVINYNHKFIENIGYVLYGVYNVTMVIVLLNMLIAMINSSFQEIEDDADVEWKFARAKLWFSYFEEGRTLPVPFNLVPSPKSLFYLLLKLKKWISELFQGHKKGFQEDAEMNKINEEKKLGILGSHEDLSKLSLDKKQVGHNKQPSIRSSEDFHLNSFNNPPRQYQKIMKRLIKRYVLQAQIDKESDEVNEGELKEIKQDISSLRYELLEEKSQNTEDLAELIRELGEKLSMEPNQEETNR
Experiment: High Throughput Screening Assay: This screening assay measures TRPC6 (transient receptor potential cation channel, subfamily C, member 6) ion channel activation via addition either of the commercially available DAG ligand analogue OAG (1-oleoyl-2-acetyl-sn-glycerol) or of the TRPC6 agonist 1-[1-(4,5,6,7,8-pentahydrocyclohepta[2,1-d]thiophen-2-ylcarbonyl)-4-piperidyl]-3-hydrobenzimidazol-2-one (GSK1702934A). The assay utilizes a FLIPR fluorescent calcium sensor 4-(6-Acetoxymethoxy-2,7-difluoro-3-oxo-9-xanthenyl)-4′-methyl-2,2′-(ethylenedioxy)dianiline-N,N,N′,N′-tetraacetic acid tetrakis(acetoxymethyl) ester (Fluo4/AM) […]. Changes (increases) in intracellular membrane calcium concentration potential as measured by the fluorescent signal increase during membrane depolarization provide a measurement of channel activity.The commercially available HEK293/TREx line (Invitrogen) was stably transfected with a TRPC6 construct and screened by conventional calcium imaging to find clones with TRPC6 expression following stimulation with 1 μg/ml tetracycline. These cells were maintained in the growth medium recommended by the manufacturer supplemented with 100 μg/ml hygromycin to promote retention of the TRPC6 construct. […]
Format: cell membranes

`CCOc1cc(C(=O)N2C3CCC2CC(c2ccc(N)nn2)C3)ncc1Oc1ccc(F)cc1` (stereo unspecified) was tested. Which IC50 did it give?
Its IC50 is 2100 nM.
